# According to patent US20240287076A1, “COMPOUNDS FOR TARGETING DEGRADATION OF BRUTON'S TYROSINE KINASE” (BIOGEN MA INC., priority 2021, published 2024):
# Target: T1, BTK (Homo sapiens, UniProt Q06187)
# T1 construct: The GM01501.3 cell line endogenously expresses BTK with a HiBiT fusion tag via CRISPR knock-in at its C-terminal region; endogenous in cells; host or cells: GM01501.3 (GM01501 cells engineered by CRISPR knock-in of HiBiT at the BTK locus)
# Experiment: BTK degradation assay using the HiBiT Method (Nano-Glo HiBiT Lytic Assay, GM01501.3 cells)
# Assay type: cell-based
# Conditions: HiBiT Degradation on GM01501.3 BTK @ 6 hours
# Summary of the method: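 CRISPR knock-in GM01501.3 cells expressing endogenous BTK with C-terminal HiBiT tag, treated 6 h at 37 °C with compounds, 11-point half-log titration from 10 μM top, duplicates. Remaining BTK quantified by Nano-Glo HiBiT lytic luminescence versus DMSO controls; DC50 reported.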
# T1 sequence (Q06187 whole entry, the tested form may be a part): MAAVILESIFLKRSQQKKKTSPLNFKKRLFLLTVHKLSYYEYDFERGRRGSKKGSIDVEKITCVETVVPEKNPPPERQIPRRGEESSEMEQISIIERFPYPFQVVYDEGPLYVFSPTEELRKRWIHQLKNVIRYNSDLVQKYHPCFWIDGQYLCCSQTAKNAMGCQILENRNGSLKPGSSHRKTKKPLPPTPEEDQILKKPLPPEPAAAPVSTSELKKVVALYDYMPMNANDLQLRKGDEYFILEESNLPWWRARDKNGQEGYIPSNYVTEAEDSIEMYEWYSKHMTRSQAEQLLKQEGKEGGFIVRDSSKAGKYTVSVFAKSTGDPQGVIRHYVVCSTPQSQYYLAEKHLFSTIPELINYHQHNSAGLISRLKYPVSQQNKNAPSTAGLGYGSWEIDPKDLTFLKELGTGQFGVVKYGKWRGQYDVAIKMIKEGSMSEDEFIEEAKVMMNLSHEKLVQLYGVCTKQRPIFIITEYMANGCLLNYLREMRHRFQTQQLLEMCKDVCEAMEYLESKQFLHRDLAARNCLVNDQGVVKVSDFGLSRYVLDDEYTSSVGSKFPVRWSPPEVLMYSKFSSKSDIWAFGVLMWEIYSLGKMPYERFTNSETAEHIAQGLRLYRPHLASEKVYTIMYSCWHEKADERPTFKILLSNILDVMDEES
row,Compound,DC50 [µM]
1,CC(C)(C)c1nc(C(=O)NCc2ccc(-c3ncnn4cc(-c5ccc(CN6CCOc7cc(OC8CCC(=O)NC8=O)ccc7C6)cn5)cc34)cc2F)no1 (stereo not shown) [Example 228],0.1 to 0.5
2,"Cc1cc(-c2ncnn3cc(-c4ccc(CN5CCC(c6ccc(OC7CCC(=O)NC7=O)cc6)CC5)cc4)cc23)ccc1CNC(=O)c1noc(C(C)(C)C)n1 (stereo not shown) [Example 19, 5-tert-butyl-N-[[4-[6-[4-[[4-[4-[(2,6-dioxo-3-piperidyl)oxy]phenyl]-1-piperidyl]methyl]phenyl]pyrrolo[2,1-f][1,2,4]triazin-4-yl]-2-methyl-phenyl]methyl]-1,2,4-oxadiazole-3-carboxamide]",< 0.1
3,"Cc1cc(-c2ncnn3cc(-c4ccc(CN5CCC(c6ccc(NC7CCC(=O)NC7=O)cc6)CC5)c(F)c4)cc23)ccc1CNC(=O)c1noc(C(C)(C)C)n1 (stereo not shown) [Example 23, 5-tert-butyl-N-[[4-[6-[4-[[4-[4-[(2,6-dioxo-3-piperidyl)amino]phenyl]-1-piperidyl]methyl]-3-fluoro-phenyl]pyrrolo[2,1-f][1,2,4]triazin-4-yl]-2-methyl-phenyl]methyl]-1,2,4-oxadiazole-3-carboxamide]",< 0.1
4,"CC(C)(C)c1nc(C(=O)NCc2ccc(-c3ncnn4cc(-c5ccc(CN6CCC(c7ccc(NC8CCC(=O)NC8=O)cc7)CC6)cc5)cc34)cc2F)no1 (stereo not shown) [Example 44, 5-tert-butyl-N-[[4-[6-[4-[[4-[4-[(2,6-dioxo-3-piperidyl)amino]phenyl]-1-piperidyl]methyl]phenyl]pyrrolo[2,1-f][1,2,4]triazin-4-yl]-2-fluoro-phenyl]methyl]-1,2,4-oxadiazole-3-carboxamide]",< 0.1
5,"CC(C)(C)c1nc(C(=O)NCc2ccc(-c3ncnn4cc(-c5ccc(CN6CCC(c7ccc(NC8CCC(=O)NC8=O)cc7)CC6)cc5)cc34)cc2Cl)no1 (stereo not shown) [Example 48, 5-tert-butyl-N-[[2-chloro-4-[6-[4-[[4-[4-[(2,6-dioxo-3-piperidyl)amino]phenyl]-1-piperidyl]methyl]phenyl]pyrrolo[2,1-f][1,2,4]triazin-4-yl]phenyl]methyl]-1,2,4-oxadiazole-3-carboxamide]",< 0.1
6,"Cc1cc(-c2ncnn3cc(N4CCN(C(=O)c5ncoc5CNC(=O)c5ccc(OC6CCC(=O)NC6=O)cc5)CC4)cc23)ccc1CNC(=O)c1noc(C(C)(C)C)n1 (stereo not shown) [Example 189, 5-(tert-butyl)-N-(4-(6-(4-(5-((4-((2,6-dioxopiperidin-3-yl)oxy)benzamido)methyl)oxazole-4-carbonyl)piperazin-1-yl)pyrrolo[2,1-f][1,2,4]triazin-4-yl)-2-methylbenzyl)-1,2,4-oxadiazole-3-carboxamide]",< 0.1
7,"Cc1cc(-c2ncnn3cc(-c4ccc(CN5CCC(c6ccc(NC7CCC(=O)NC7=O)cc6)CC5)cc4)cc23)ccc1CNC(=O)c1ccc(F)c(F)c1 (stereo not shown) [Example 65, N-[[4-[6-[4-[[4-[4-[(2,6-dioxo-3-piperidyl)amino]phenyl]-1-piperidyl]methyl]phenyl]pyrrolo[2,1-f][1,2,4]triazin-4-yl]-2-methyl-phenyl]methyl]-3,4-difluoro-benzamide]",< 0.1
8,"Cc1cc(-c2ncnn3cc(-c4cnc(Oc5ccc(CN6CCC(c7ccc(C8CCC(=O)NC8=O)cc7)CC6)cc5)nc4)cc23)ccc1CNC(=O)c1noc(C(C)(C)C)n1 (stereo not shown) [Example 206, 5-(tert-butyl)-N-(4-(6-(2-(4-((4-(4-(2,6-dioxopiperidin-3-yl)phenyl)piperidin-1-yl)methyl)phenoxy)pyrimidin-5-yl)pyrrolo[2,1-f][1,2,4]triazin-4-yl)-2-methylbenzyl)-1,2,4-oxadiazole-3-carboxamide]",< 0.1
9,"Cc1cc(-c2ncnn3cc(CCCCN4CCN(c5ccc(NC6CCC(=O)NC6=O)cc5)CC4)cc23)ccc1CNC(=O)c1noc(C(C)(C)C)n1 (stereo not shown) [Example 131, 5-tert-butyl-N-[[4-[6-[4-[4-[4-[(2,6-dioxo-3-piperidyl)amino]phenyl]piperazin-1-yl]butyl]pyrrolo[2,1-f][1,2,4]triazin-4-yl]-2-methyl-phenyl]methyl]-1,2,4-oxadiazole-3-carboxamide]",< 0.1
10,"Cc1cc(-c2ncnn3cc(N4CCN(C(=O)CCCC5CN(C(=O)c6ccc(OC7CCC(=O)NC7=O)cc6)C5)CC4)cc23)ccc1CNC(=O)c1noc(C(C)(C)C)n1 (stereo not shown) [Example 184, 5-(tert-butyl)-N-(4-(6-(4-(4-(1-(4-((2,6-dioxopiperidin-3-yl)oxy)benzoyl)azetidin-3-yl)butanoyl)piperazin-1-yl)pyrrolo[2,1-f][1,2,4]triazin-4-yl)-2-methylbenzyl)-1,2,4-oxadiazole-3-carboxamide]",< 0.1
11,"Cc1cc(-c2ncnn3cc(CCC[C@H](F)CN4CCC(c5ccc(C6CCC(=O)NC6=O)cc5)CC4)cc23)ccc1CNC(=O)c1noc(C(C)(C)C)n1 (stereo partly drawn) [Example 171, 5-tert-butyl-N-[[4-[6-[(4S)-5-[4-[4-(2,6-dioxo-3-piperidyl)phenyl]-1-piperidyl]-4-fluoro-pentyl]pyrrolo[2,1-f][1,2,4]triazin-4-yl]-2-methyl-phenyl]methyl]-1,2,4-oxadiazole-3-carboxamide]",< 0.1
12,"Cc1cc(-c2ncnn3cc(-c4ccc(CN5CCC(c6ccc(NC7CCC(=O)NC7=O)cc6)CC5)cc4)cc23)ccc1CNC(=O)c1ncc(C(C)C)cc1F (stereo not shown) [Example 76, N-[[4-[6-[4-[[4-[4-[(2,6-dioxo-3-piperidyl)amino]phenyl]-1-piperidyl]methyl]phenyl]pyrrolo[2,1-f][1,2,4]triazin-4-yl]-2-methyl-phenyl]methyl]-3-fluoro-5-isopropyl-pyridine-2-carboxamide]",< 0.1
13,"CC(C)(C)c1nc(C(=O)NCc2ccc(-c3ncnn4cc(-c5ccc(CN6CCC(Cc7cccc(OC8CCC(=O)NC8=O)c7)CC6)cn5)cc34)cc2F)no1 (stereo not shown) [Example 231, 5-(tert-butyl)-N-(4-(6-(5-((4-(3-((2,6-dioxopiperidin-3-yl)oxy)benzyl)piperidin-1-yl)methyl)pyridin-2-yl)pyrrolo[2,1-f][1,2,4]triazin-4-yl)-2-fluorobenzyl)-1,2,4-oxadiazole-3-carboxamide]",0.1 to 0.5

# Next, values leading:
row,DC50 [µM],Compound
1,< 0.1,"Cn1nc(N2CCC(=O)NC2=O)c2ccc(C3CCN(CCCCc4cc5c(-c6ccc7c(c6)OCCCC7NC(=O)c6noc(C(C)(C)C)n6)ncnn5c4)CC3)cc21 (stereo not shown) [Example 290, 5-(tert-butyl)-N-(8-(6-(4-(4-(3-(2,4-dioxotetrahydropyrimidin-1(2H)-yl)-1-methyl-1H-indazol-6-yl)piperidin-1-yl)butyl)pyrrolo[2,1-f][1,2,4]triazin-4-yl)-2,3,4,5-tetrahydrobenzo[b]oxepin-5-yl)-1,2,4-oxadiazole-3-carboxamide]"
2,< 0.1,"CC(C)(C)c1nc(C(=O)NCc2ccc(-c3ncnn4cc(-c5ccc(CN6CCOCC6Cc6ccc(OC7CCC(=O)NC7=O)cc6)cn5)cc34)cc2F)no1 (stereo not shown) [Example 238, 5-(tert-butyl)-N-(4-(6-(5-((3-(4-((2,6-dioxopiperidin-3-yl)oxy)benzyl)morpholino)methyl)pyridin-2-yl)pyrrolo [2,1-f][1,2,4]triazin-4-yl)-2-fluorobenzyl)-1,2,4-oxadiazole-3-carboxamide]"
3,< 0.1,"Cc1cc(-c2ncnn3cc(OCCCN4CCC[C@@H](c5ccc6c(N7CCC(=O)NC7=O)nn(C)c6c5)C4)cc23)ccc1CNC(=O)c1noc(C(C)(C)C)n1 (single isomer, unassigned) [Example 292]"
4,< 0.1,"Cc1cc(-c2ncnn3cc(CC[C@@H](F)CN4CCC(c5ccc(C6CCC(=O)NC6=O)cc5)CC4)cc23)ccc1CNC(=O)c1noc(C(C)(C)C)n1 (single isomer, unassigned) [Example 286]"
5,< 0.1,"Cc1cc(-c2ncnn3cc(CCCCN4CCC(c5ccc6c(N7CCC(=O)NC7=O)nn(C)c6c5F)CC4)cc23)ccc1CNC(=O)c1noc(C(C)(C)C)n1 [Example 278, 5-(tert-butyl)-N-(4-(6-(4-(4-(3-(2,4-dioxotetrahydropyrimidin-1(2H)-yl)-7-fluoro-1-methyl-1H-indazol-6-yl)piperidin-1-yl)butyl)pyrrolo[2,1-f][1,2,4]triazin-4-yl)-2-methylbenzyl)-1,2,4-oxadiazole-3-carboxamide]"
6,< 0.1,"Cc1cc(-c2ncnn3cc(CCN4CCC(c5ncc(NC6CCC(=O)NC6=O)cc5F)CC4)cc23)ccc1CNC(=O)c1noc(C(C)(C)C)n1 (stereo not shown) [Example 251, 5-(tert-butyl)-N-(4-(6-(2-(4-(5-((2,6-dioxopiperidin-3-yl)amino)-3-fluoropyridin-2-yl)piperidin-1-yl)ethyl)pyrrolo[2,1-f][1,2,4]triazin-4-yl)-2-methylbenzyl)-1,2,4-oxadiazole-3-carboxamide]"
7,< 0.1,"CC(C)(C)c1nc(C(=O)NCc2ccc(-c3ncnn4cc(-c5ccc(CN6CCN(Cc7ccc(OC8CCC(=O)NC8=O)cc7)CC6)cn5)cc34)cc2F)no1 (stereo not shown) [Example 234, 5-(tert-butyl)-N-(4-(6-(5-((4-(4-((2,6-dioxopiperidin-3-yl)oxy)benzyl)piperazin-1-yl)methyl)pyridin-2-yl)pyrrolo[2,1-f][1,2,4]triazin-4-yl)-2-fluorobenzyl)-1,2,4-oxadiazole-3-carboxamide]"
8,< 0.1,"Cc1cc(-c2ncnn3cc(CCN4CCC(c5ccc6c(N7CCC(=O)NC7=O)nn(C)c6c5)CC4)cc23)ccc1CNC(=O)c1cnn(C(C)(C)C)c1 [Example 258, 1-(tert-butyl)-N-(4-(6-(2-(4-(3-(2,4-dioxotetrahydropyrimidin-1(2H)-yl)-1-methyl-1H-indazol-6-yl)piperidin-1-yl)ethyl)pyrrolo[2,1-f][1,2,4]triazin-4-yl)-2-methylbenzyl)-1H-pyrazole-4-carboxamide]"
9,< 0.1,"Cc1cc(-c2ncnn3cc(CCCCN4CCC(c5ccc6c(N7CCC(=O)NC7=O)nn(C)c6c5)CC4)cc23)ccc1CNC(=O)c1cc(C(C)(C)C)no1 [Example 280, 3-(tert-butyl)-N-(4-(6-(4-(4-(3-(2,4-dioxotetrahydropyrimidin-1(2H)-yl)-1-methyl-1H-indazol-6-yl)piperidin-1-yl)butyl)pyrrolo[2,1-f][1,2,4]triazin-4-yl)-2-methylbenzyl)isoxazole-5-carboxamide]"
